Reference: US20260014147A1, “STAT6 DEGRADERS” (Gilead Sciences, Inc., priority 2024, published 2026)

Columns and labels:
[1] = target: T1, human STAT6 (truncated, aa122-658, with N-terminal His-tag) (Homo sapiens, UniProt P42226); assay: Surface Plasmon Resonance (SPR) assay: binding of compounds to immobilized human STAT6; conditions: immobilized human STAT6 (aa122-658), 25° C.; geometric mean
T1 construct: Human STAT6 (truncated, aa122-658, with N-terminal His-tag, expressed in insect cells); His-tag (N); made in house; host or cells: insect cells
T1 sequence (P42226 122-658): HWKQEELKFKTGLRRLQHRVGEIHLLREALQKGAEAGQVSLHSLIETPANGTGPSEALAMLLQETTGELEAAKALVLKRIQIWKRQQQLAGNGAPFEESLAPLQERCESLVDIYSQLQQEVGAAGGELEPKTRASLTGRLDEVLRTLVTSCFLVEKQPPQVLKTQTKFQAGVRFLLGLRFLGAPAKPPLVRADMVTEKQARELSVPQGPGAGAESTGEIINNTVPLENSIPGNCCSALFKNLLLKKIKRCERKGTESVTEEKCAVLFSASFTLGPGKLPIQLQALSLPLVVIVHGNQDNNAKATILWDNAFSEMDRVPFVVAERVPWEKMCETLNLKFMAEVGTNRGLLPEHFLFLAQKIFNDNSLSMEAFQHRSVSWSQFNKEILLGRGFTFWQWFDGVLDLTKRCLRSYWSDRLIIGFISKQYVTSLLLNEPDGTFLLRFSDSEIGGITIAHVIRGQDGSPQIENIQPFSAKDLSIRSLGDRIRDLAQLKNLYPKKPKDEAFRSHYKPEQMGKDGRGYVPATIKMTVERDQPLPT
Description: SPR was used to confirm and quantify binding of compounds to human STAT6. Biacore instruments from the 8K-series (Cytiva) were used, and measurements were performed at 25° C. Human STAT6 (truncated, aa122-658, with N-terminal His-tag, expressed in insect cells) was immobilized in the active flow cells on a CM5 chip using amine-coupling (default settings) at 10 μg/ml in 10 mM acetate buffer pH 5.5, at a contact time of 120-420 sec. and a flow rate of […]. Reference flow cells were deactivated using blank immobilization. PBS-P+ (Cytiva) supplemented with 2% DMSO was used as running buffer, and solvent correction was applied. Compounds were tested by multi-cycle kinetics injections using a contact time of 60 sec., dissociation time of up to 300 sec., and a flow rate of […].
Solvent-corrected, reference-subtracted and blank-corrected data was processed and binding isotherms were fitted according to a single report point from each sensorgram (Standard: Late binding (5 sec. before injection end); alternative: Earlier report point according to binding profile). Data fitting was done both with unfixed Rmax and with Rmax fixed to the theoretical value* assuming 1:1 binding to allow processing of data from both weak and strong binders as well as to evaluate binding stoichiometry.
Positive controls were run at the beginning, during, and at the end of the screen to evaluate surface activity. Generally surface activity was only affected to a minor degree, and no corrections were applied.
*Equation for calculation of the theoretical Rmax (Theoretical Rmax=(MW Analyte/MW Ligand) x immobilization level).
The sensorgrams for Examples 2a1, 2t1, 2m1, and 2a2 are shown below (where RU is plotted vs. time in seconds; dotted lines/points were excluded from the analysis due to effects from non-specific binding).

[2] = target: T2, STAT6 (endogenous, HiBiT-tagged) in HeLa LgBiT clone 4.14 cells (Homo sapiens, UniProt P42226); assay: STAT6 Degrader Assay (HiBiT based, HeLa LgBiT clone 4.14 cells, luminescence, DC50); format: cell-based; conditions: geometric mean; for DC50: DC50 provided for test compounds with >80% Emax, read-out: STAT6 degradation DC50; for Emax: Emax provided for test compounds with <80% Emax (and 2c15), read-out: STAT6 degradation Emax
T2 construct: These cells express endogenous STAT6; host or cells: HeLa LgBiT clone 4.14
T2 sequence (P42226 1-847): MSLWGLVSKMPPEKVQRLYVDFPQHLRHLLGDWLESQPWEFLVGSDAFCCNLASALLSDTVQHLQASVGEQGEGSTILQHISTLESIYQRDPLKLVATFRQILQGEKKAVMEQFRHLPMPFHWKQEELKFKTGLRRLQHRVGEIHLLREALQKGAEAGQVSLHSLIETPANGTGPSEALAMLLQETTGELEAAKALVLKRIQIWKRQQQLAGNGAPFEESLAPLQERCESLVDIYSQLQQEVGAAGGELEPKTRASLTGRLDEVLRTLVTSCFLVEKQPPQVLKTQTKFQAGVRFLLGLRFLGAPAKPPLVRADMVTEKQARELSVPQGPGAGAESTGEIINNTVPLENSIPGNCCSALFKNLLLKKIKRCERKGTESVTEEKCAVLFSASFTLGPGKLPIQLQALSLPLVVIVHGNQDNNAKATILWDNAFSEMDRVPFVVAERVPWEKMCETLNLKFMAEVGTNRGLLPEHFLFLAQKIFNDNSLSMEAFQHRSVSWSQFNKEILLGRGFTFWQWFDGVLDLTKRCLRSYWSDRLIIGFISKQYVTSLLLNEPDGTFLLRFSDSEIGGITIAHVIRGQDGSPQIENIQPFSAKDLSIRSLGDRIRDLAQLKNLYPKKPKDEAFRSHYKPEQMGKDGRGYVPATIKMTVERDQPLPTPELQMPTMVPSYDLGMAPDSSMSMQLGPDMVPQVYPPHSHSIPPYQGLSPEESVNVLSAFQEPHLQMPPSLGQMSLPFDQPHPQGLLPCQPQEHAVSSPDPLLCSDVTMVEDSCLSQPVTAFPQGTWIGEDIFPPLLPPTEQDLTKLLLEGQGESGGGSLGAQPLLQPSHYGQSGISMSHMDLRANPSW
In short: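 HeLa LgBiT clone 4.14 cells carry CRISPR-inserted HiBiT on endogenous STAT6; 5000 cells/well were exposed to compound for 4-24 h at 37 °C, 5% CO2. Nano-Glo substrate added for 0.5 h; luminescence reflects remaining STAT6, with terfenadine ([…]) wells defining 100% degradation.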

[3] = tested on: Eotaxin-3 (CCL26) release in human whole blood stimulated with IL-4; assay: Human Whole Blood Eotaxin-3 Assay (IL-4 stimulated, inhibition of eotaxin-3 release); format: cell-based; conditions: Homo sapiens, EC50 provided for test compounds with >80% Emax, geometric mean across assay runs and batches
In short: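 Lithium-heparin human whole blood preincubated 2 h at 37 °C with compounds (4-fold serial dilution, triplicate, 0.5% DMSO final), then stimulated with 400 pM IL-4 for 48 h. Eotaxin-3 (CCL26) in supernatant quantified by MSD immunoassay.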

SMILES	Kd [1] [nM]	DC50 [2] [nM]	Emax [2] [%]	EC50 [3] [nM]
Cn1c(CN2CCC(c3ccc(C(=O)N4CCN(C(=O)CN5CCC(c6ccc(NC7CCC(=O)NC7=O)cc6F)CC5)CC4)cc3)CC2)cc2c(-c3ccc4[nH]ncc4c3)ccnc21 (centres unmarked) [Example 2a1, 3-((4-(1-(2-(4-(4-(1-((4-(1H-indazol-5-yl)-1-methyl-1H-pyrrolo[2,3-b]pyridin-2-yl)methyl)-piperidin-4-yl)benzoyl)piperazin-1-yl)-2-oxoethyl)piperidin-4-yl)-3-fluorophenyl)amino)piperidine-2,6-dione]	224	4.9		
Cn1c(CN2CCC(c3ccc(C(=O)N4CCn5nc(CN6CCC(c7ccc(NC8CCC(=O)NC8=O)cc7F)CC6)cc5C4)cc3)CC2)cc2c(-c3ccc4[nH]ncc4c3)ccnc21 (centres unmarked) [Example 2q3, 3-((4-(1-((5-(4-(1-((4-(1H-indazol-5-yl)-1-methyl-1H-pyrrolo[2,3-b]pyridin-2-yl)methyl)-piperidin-4-yl)benzoyl)-4,5,6,7-tetrahydropyrazolo[1,5-a]pyrazin-2-yl)methyl)piperidin-4-yl)-3-fluorophenyl)amino)piperidine-2,6-dione]		2.7		11.3
Cn1c(CN2CCC(c3ccc(C(=O)N4CCn5nc(CN6CCC(c7ccc(NC8CCC(=O)NC8=O)cc7F)CC6)cc5C4)cc3)CC2)cc2c(-c3ccc(N)nc3)ccnc21 (centres unmarked) [Example 2q4, 3-((4-(1-((5-(4-(1-((4-(6-aminopyridin-3-yl)-1-methyl-1H-pyrrolo[2,3-b]pyridin-2-yl)methyl)-piperidin-4-yl)benzoyl)-4,5,6,7-tetrahydropyrazolo[1,5-a]pyrazin-2-yl)methyl)piperidin-4-yl)-3-fluoro-phenyl)amino)piperidine-2,6-dione]			70 to 80	73.5
C[C@@H](c1cc2c(-c3ccc(N)nc3)ccnc2n1C)N1CCC(c2ccc(C(=O)N3CCn4nc(CN5CCC(c6ccc(NC7CCC(=O)NC7=O)cc6F)CC5)cc4C3)cc2)CC1 (stereo partly drawn) [Example 2q5, 3-((4-(1-((5-(4-(1-((S)-1-(4-(6-aminopyridin-3-yl)-1-methyl-1H-pyrrolo[2,3-b]pyridin-2-yl)ethyl)-piperidin-4-yl)benzoyl)-4,5,6,7-tetrahydropyrazolo[1,5-a]pyrazin-2-yl)methyl)piperidin-4-yl)-3-fluorophenyl)-amino)piperidine-2,6-dione]		1		2.3
COCc1nc2cc(-c3ccnc4c3cc(CN3CCC(c5ccc(C(=O)N6CCn7nc(CN8CCC(c9ccc(NC%10CCC(=O)NC%10=O)cc9F)CC8)cc7C6)cc5)CC3)n4C)ccc2[nH]1 (centres unmarked) [Example 2q7, 3-((3-fluoro-4-(1-((5-(4-(1-((4-(2-(methoxymethyl)-1H-benzo[d]imidazol-5-yl)-1-methyl-1H-pyrrolo[2,3-b]pyridin-2-yl)methyl)piperidin-4-yl)benzoyl)-4,5,6,7-tetrahydropyrazolo[1,5-a]pyrazin-2-yl)-methyl)piperidin-4-yl)phenyl)amino)piperidine-2,6-dione]		2.6		2.4
C[C@@H](c1cc2c(-c3ccc(N)nc3)ccnc2n1C)N1CCC(c2ccc(C(=O)N3CCn4nc(CN5CCC(c6ccc(NC7CCC(=O)NC7=O)cc6F)C(F)(F)C5)cc4C3)cc2)CC1 (stereo partly drawn) [Example 2q9, 3-((4-(1-((5-(4-(1-((S)-1-(4-(6-aminopyridin-3-yl)-1-methyl-1H-pyrrolo[2,3-b]pyridin-2-yl)-ethyl)piperidin-4-yl)benzoyl)-4,5,6,7-tetrahydropyrazolo[1,5-a]pyrazin-2-yl)methyl)-3,3-difluoro-piperidin-4-yl)-3-fluorophenyl)amino)piperidine-2,6-dione]		2.9		26.7

Second part, the molecule after the results:

Kd [1] [nM]	DC50 [2] [nM]	Emax [2] [%]	EC50 [3] [nM]	SMILES
		70 to 80	40.9	COCc1nc2cc(-c3ccnc4c3cc([C@H](C)N3CCC(c5ccc(C(=O)N6CCC(CN7CCN(c8ncc(NC9CCC(=O)NC9=O)cc8F)CC7)CC6)cc5)CC3)n4C)ccc2[nH]1 (stereo partly drawn) [Example 2n12, 3-((5-fluoro-6-(4-((1-(4-(1-((S)-1-(4-(2-(methoxymethyl)-1H-benzo[d]imidazol-5-yl)-1-methyl-1H-pyrrolo[2,3-b]pyridin-2-yl)ethyl)piperidin-4-yl)benzoyl)piperidin-4-yl)methyl)piperazin-1-yl)pyridin-3-yl)amino)piperidine-2,6-dione]
	5.6		19.9	C[C@@H](c1cc2c(-c3ccc(N)nc3)ccnc2n1C)N1CCC(c2ccc(C(=O)N3CCn4nc(CN5CCC(c6ncc(NC7CCC(=O)NC7=O)cc6F)CC5)cc4C3)cc2)CC1 (stereo partly drawn) [Example 2q6, 3-((6-(1-((5-(4-(1-((S)-1-(4-(6-aminopyridin-3-yl)-1-methyl-1H-pyrrolo[2,3-b]pyridin-2-yl)ethyl)-piperidin-4-yl)benzoyl)-4,5,6,7-tetrahydropyrazolo[1,5-a]pyrazin-2-yl)methyl)piperidin-4-yl)-5-fluoropyridin-3-yl)amino)piperidine-2,6-dione]
	24.7		86.7	C[C@@H](c1cc2c(-c3ccc(N)nc3)ccnc2n1C)N1CCC(c2ccc(C(=O)N3CCn4nc(CN5CCN(c6ncc(NC7CCC(=O)NC7=O)cc6F)CC5)cc4C3)cc2)CC1 (stereo partly drawn) [Example 2q14, 3-((6-(4-((5-(4-(1-((S)-1-(4-(6-aminopyridin-3-yl)-1-methyl-1H-pyrrolo[2,3-b]pyridin-2-yl)ethyl)-piperidin-4-yl)benzoyl)-4,5,6,7-tetrahydropyrazolo[1,5-a]pyrazin-2-yl)methyl)piperazin-1-yl)-5-fluoropyridin-3-yl)amino)piperidine-2,6-dione]
	6		59.5	COCc1nc2cc(-c3ccnc4c3cc([C@H](C)N3CCC(c5ccc(C(=O)N6CCC(CN7CCN(c8ncc(NC9CCC(=O)NC9=O)cc8F)C[C@H]7C)CC6)cc5)CC3)n4C)ccc2[nH]1 (some centres unmarked) [Example 3t5]
